Experimental data as given in publication PMC10828444, “Selective inhibition of overactive warmth-sensitive Ca^2+-permeable TRPV3 channels by antispasmodic agent flopropione for alleviation of skin inflammation” (The Journal of Biological Chemistry, 2023).
pIC50: −log10 of the molar value. Where two headings read alike, the source gives them in different places. One block for each compound: values may come before it.

Key:
[1] = biological target: T1, hTRPV3 single channel (Homo sapiens, UniProt Q8NET8); assay: Inside-out single-channel recordings of TRPV3 in HEK293 cells; type: cell-based; details: agonist 2-APB 30 μmol/L alone, −60 mV
T1 construct: expressed in transfected cells; host or cells: HEK293
T1 sequence (Q8NET8 1-790): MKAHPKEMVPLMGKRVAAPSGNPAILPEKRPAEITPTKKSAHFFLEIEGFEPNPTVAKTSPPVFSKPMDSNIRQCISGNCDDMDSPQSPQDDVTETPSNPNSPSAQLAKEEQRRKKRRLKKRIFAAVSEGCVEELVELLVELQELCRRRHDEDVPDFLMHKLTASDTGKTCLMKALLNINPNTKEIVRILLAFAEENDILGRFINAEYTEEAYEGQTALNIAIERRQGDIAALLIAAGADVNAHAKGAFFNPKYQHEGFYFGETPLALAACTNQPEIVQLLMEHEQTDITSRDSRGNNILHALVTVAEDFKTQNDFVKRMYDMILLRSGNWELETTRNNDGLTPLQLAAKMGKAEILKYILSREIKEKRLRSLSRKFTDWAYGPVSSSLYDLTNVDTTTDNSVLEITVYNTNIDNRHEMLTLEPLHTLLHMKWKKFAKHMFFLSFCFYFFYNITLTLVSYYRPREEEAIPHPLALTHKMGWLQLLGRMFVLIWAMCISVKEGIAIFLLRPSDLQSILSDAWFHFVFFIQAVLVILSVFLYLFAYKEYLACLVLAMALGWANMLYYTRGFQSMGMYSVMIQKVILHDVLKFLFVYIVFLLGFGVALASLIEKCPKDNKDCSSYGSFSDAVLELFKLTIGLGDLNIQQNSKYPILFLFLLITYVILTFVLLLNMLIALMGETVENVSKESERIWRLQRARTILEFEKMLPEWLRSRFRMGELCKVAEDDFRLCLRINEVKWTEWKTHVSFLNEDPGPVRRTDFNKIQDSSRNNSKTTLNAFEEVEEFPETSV
Text: For single-channel recordings, borosilicate glass pipettes were pulled from borosilicate glass capillaries and fire-polished to the resistance between 6 and 10 MΩ using a DMZ universal electrode puller (Zeitz-Instruments, GmbH). For inside-out single-channel recordings, both pipette and external solutions contained (in mM): 130 NaCl, three HEPES, and 0.2 EDTA (pH = 7.4). Membrane potential was clamped at −60 mV and currents were digitized at 10 kHz and filtered at 2 kHz.

[2] = system: TRPV3; details: cited from earlier work
[3] = system: TRPM8; parameters: method as in PMID 33876725; details: ref [18]; read-out: IC50 TRPM8 currents; cited from earlier work
[4] = system: TRPV2; parameters: method as in PMID 33876725; details: ref [18]; read-out: IC50 TRPV2 currents; cited from earlier work
[5] = system: TRPV1; parameters: method as in PMID 30108138, PMID 27160770; details: ref [16], [42]; cited from earlier work
[6] = system: TRPV4; parameters: method as in PMID 30108138, PMID 27160770; details: ref [16], [42]; cited from earlier work
[7] = system: TRPA1; parameters: method as in PMID 30377214; details: ref [17]; cited from earlier work

single-channel conductance [1]: about 170.9 ± 4.8 pS
single-channel open probability [1]: 0.75
Compound: NCCOB(c1ccccc1)c1ccccc1 [2-APB, 2-aminoethoxydiphenyl borate]

Compound: CCCCOc1ccc(C(=O)CCN2CCCCC2)cc1 [dyclonine]
pIC50 ([2]; ref [18], read-out: IC50 TRPV3 currents): ~5.49
pIC50 [3]: 4.09
pIC50 [4]: 4.51

Compound: COc1ccc2ccc(=O)oc2c1CC=C(C)C [osthole]
pIC50 ([2]; ref [16], [42], read-out: IC50 TRPV3): ~4.43
inhibition of TRPV1 [5]: weak inhibition
inhibition of TRPV4 [6]: weak inhibition

Compound: forsythoside B
pIC50 ([2]; ref [17], read-out: IC50 TRPV3 currents): ~5.17
inhibition of TRPA1 currents [7]: weak inhibition
